Test results: PubChem BioAssay (NCI)
Values joined by “and” are separate entries in the source; they are usually repeats but may differ in a detail not shown here. Equal values may be shown once.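 Interpolation was linear, between the two tested concentrations surrounding the appropriate level; five concentrations were tested over 48 hours in 96-well plates. The concentration for 50% growth inhibition is given as GI50. TGI marks complete inhibition of growth.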

Tests used:
Experiment in all cases: NCI tumour cell line growth inhibition, 48 h
SNB-75 CNS = system: SNB-75 CNS
DU-145 prostate = system: DU-145 prostate
A549 NSCLC = system: A549 NSCLC
K-562 leukemia = system: K-562 leukemia
MDA-MB-435 = system: MDA-MB-435
NCI-H460 lung = system: NCI-H460 lung
OVCAR-5 ovarian = system: OVCAR-5 ovarian
EKVX NSCLC = system: EKVX NSCLC
OVCAR-4 ovarian = system: OVCAR-4 ovarian
HCC-2998 colon = system: HCC-2998 colon

SMILES	GI50 (SNB-75 CNS)	TGI (SNB-75 CNS)	GI50 (DU-145 prostate)	TGI (DU-145 prostate)	GI50 (A549 NSCLC)	TGI (A549 NSCLC)	GI50 (K-562 leukemia)	TGI (K-562 leukemia)	GI50 (MDA-MB-435)	TGI (MDA-MB-435)	GI50 (NCI-H460 lung)	TGI (NCI-H460 lung)	GI50 (OVCAR-5 ovarian)	TGI (OVCAR-5 ovarian)	GI50 (EKVX NSCLC)	TGI (EKVX NSCLC)	GI50 (OVCAR-4 ovarian)	TGI (OVCAR-4 ovarian)	GI50 (HCC-2998 colon)	TGI (HCC-2998 colon)
C#Cc1cccc(NC(=O)C2CCCCN2C(=O)CCl)c1 (stereo not drawn)	17.9 µM	> 82.5 µM	24.4 µM	> 82.5 µM	> 82.5 µM	> 82.5 µM	15.3 µM	> 82.5 µM	15.8 µM	60.7 µM	23.9 µM	> 82.5 µM	13.1 µM	27.2 µM	> 82.5 µM	> 82.5 µM	8.77 µM	24.5 µM	28.6 µM	> 82.5 µM
CNC(=O)c1cc(Oc2ccc(NC(=O)Nc3ccc(Cl)c(C(F)(F)F)c3)cc2)ccn1	1.86 µM and 2.65 µM and 2.73 µM	> 10 µM and 8.98 µM and 8.78 µM	4.55 µM and 3.04 µM and 3.11 µM	> 10 µM and 9.33 µM and 10.7 µM	3.03 µM and 2.57 µM and 2.92 µM	> 10 µM and 11.5 µM and 13.6 µM	1.7 µM and 2.5 µM and 2.53 µM	> 100 µM	1.96 µM and 1.82 µM and 1.84 µM	5.74 µM and 4.33 µM and 4.92 µM	3.17 µM and 2.88 µM and 2.44 µM	> 10 µM and 10.2 µM and 7.09 µM	3.54 µM and 4.39 µM and 3.11 µM	> 10 µM and 19.9 µM and 15.7 µM	3.24 µM and 2.51 µM and 2.67 µM	> 10 µM and 7.86 µM and 13 µM	3.07 µM and 3.67 µM and 3.42 µM	> 10 µM and 11.5 µM and 22.2 µM	3.4 µM and 1.58 µM and 2.81 µM	> 10 µM and 3.11 µM and 8.92 µM
c1ccc2c(c1)CCCc1nnc3nc4ccccc4n3c1-2	23 µM	> 100 µM	4.91 µM	> 100 µM	3.66 µM	> 100 µM	3.87 µM	> 100 µM	7.32 µM	> 100 µM	3.65 µM	16.6 µM	9.28 µM	> 100 µM	4.02 µM	> 100 µM	3.98 µM	> 100 µM	6.45 µM	24.1 µM
COc1cc(-c2cc(-c3ccc(Nc4nc(Nc5ccc(Cl)cc5)nc(Nc5ccc(Cl)cc5)n4)cc3)no2)cc(OC)c1OC	12.7 µM	> 100 µM	7.08 µM	> 100 µM	13.5 µM	> 100 µM	1.98 µM	19.4 µM	7.15 µM	> 100 µM	6.79 µM	46.4 µM	27.3 µM	> 100 µM	24.9 µM	> 100 µM	57.1 µM	> 100 µM	13.1 µM	91.3 µM
C=C1CC2(CC(c3ccccc3C)OC(c3ccccc3C)C2)OC1=O (stereo not drawn)		11.6 µM		24.6 µM		19.4 µM		5.09 µM		3.13 µM		14.2 µM		26.5 µM		30.1 µM		5.49 µM		5.82 µM
COc1cc2cc(C(=O)Nc3ccccc3)c(N)nc2cc1OC	29.2 µM	> 100 µM	80.3 µM	> 100 µM	63.1 µM	> 100 µM	41.7 µM	> 100 µM	48.7 µM	> 100 µM	73.9 µM	> 100 µM	> 100 µM	> 100 µM	73.6 µM	> 100 µM	29.8 µM	> 100 µM	94.4 µM	> 100 µM
C/C=C1/CN2CCC34c5ccccc5N5C(=O)C(C6CC78c9ccccc9N9C(=O)C=CC(C%10CC7N6C/C%10=C/C)C98)=CC(C1CC23)C54 (stereo not drawn)		14.7 µM		23.4 µM	14.1 µM	18.9 µM and 32.3 µM		50 µM	7.47 µM	21.4 µM and 21.7 µM	9.87 µM	15.9 µM and 40 µM	19.3 µM	19.9 µM and 34.6 µM	12.5 µM	14.5 µM and 26.4 µM		32.9 µM and 22.4 µM	13.4 µM	12.2 µM and 29.9 µM
Cn1cc(-c2[nH]c3cc(NC(=O)[C@H](N)C4CCCCC4)cc4c3c2C=NNC4=O)cn1	0.339 µM and 0.311 µM	1.88 µM and 1.84 µM	0.508 µM and 0.528 µM	19.8 µM and > 10 µM	3.63 µM and 3.85 µM	16.9 µM and > 10 µM	0.193 µM and 0.205 µM	1.78 µM and > 10 µM	0.245 µM and 0.286 µM	1.23 µM and 1.28 µM	4.11 µM and 3.59 µM	19.9 µM and > 10 µM	1.28 µM and 0.644 µM	15.8 µM and > 10 µM	6.83 µM and 5.99 µM	21.8 µM and > 10 µM	0.184 µM and 0.217 µM	10.5 µM and > 10 µM	0.472 µM and 0.287 µM	19.9 µM and > 10 µM
Cc1cc(C(=O)NOCCO)c(Nc2ccc(I)cc2F)n(C)c1=O	> 10 µM and 17.1 µM	> 100 µM	> 10 µM and 53.8 µM	> 100 µM		> 100 µM	0.321 µM and 0.19 µM	> 100 µM	0.00458 µM and < 0.01 µM	> 100 µM	> 10 µM and 46.7 µM	> 100 µM	0.00163 µM and < 0.0168 µM	> 100 µM	0.0233 µM	> 10 µM		> 100 µM	0.00297 µM and < 0.01 µM	> 6.94 µM
Nc1nc(N)c2c(n1)NC(c1ccc(Cl)cc1)C1CCc3ccccc3C1=N2 (stereo not drawn)	13 µM	26.8 µM	11.2 µM	23.3 µM	11.8 µM	25 µM			4.72 µM	19.6 µM	3.77 µM	12.9 µM	14.9 µM	28.1 µM	3.62 µM	21 µM	6.45 µM	21 µM	12.2 µM	24.7 µM
OC(CBr)C(O)C(O)C(O)CBr (stereo not drawn)	13 µM and 51 µM	68.4 µM and > 100 µM		> 100 µM		> 100 µM		> 100 µM		> 100 µM		> 100 µM		> 100 µM		> 100 µM		> 100 µM		> 100 µM
COc1cccc(/C=C/C(=O)c2cc3c(N)c(C(=O)Nc4ccccc4)sc3nc2C)c1	0.889 µM	> 50 µM	1.39 µM	4.37 µM	1.51 µM	6.23 µM	1.47 µM	> 50 µM	0.989 µM	2.86 µM	1.1 µM	2.47 µM	1.28 µM	4.61 µM	5.8 µM	13.1 µM	1.78 µM	> 50 µM	0.901 µM	1.66 µM
O=C(C#Cc1ccccc1)N1CCCCC1		> 100 µM		> 100 µM		> 100 µM		> 100 µM		> 100 µM		> 100 µM		> 100 µM		> 100 µM		> 100 µM		> 100 µM
O=C(Nc1ccn(C2CCC(COC(c3ccccc3)(c3ccccc3)c3ccccc3)O2)c(=O)n1)c1ccccc1 (stereo not drawn)		8.35 µM		15.5 µM		13 µM		7.97 µM		10.6 µM		10.4 µM		7.95 µM		14.4 µM		7.71 µM		29.2 µM
